Consider 30 compounds from US6455528B1, “Piperazine compounds and medicinal use thereof” (Mitsubishi Pharma Corporation, priority 1997, dated 2002).

Counter-ions that a name gives are not always drawn.

In series [1] the test system is TNF-α production. Put plainly: Effect on TNF-α production in mice (in vivo), LPS-induced. The conditions noted are these: serum TNF-α 90 min after LPS 500 μg/kg i.p.; test compound orally 30 min before LPS; ratio relative to test compound non-administration group. As to the method: (§1) Since the TNF-α concentration in serum reaches a peak at 90 min after LPS administration, the TNF-α concentration in the serum at this point was measured using FACTOR TEST mTNF-α (manufactured by Genzyme) and the IL-10 concentration at the same point of time was also measured using Murine IL-10 ELISA Kit (manufactured by Endogen). […] The effect of the test compound on the TNF-α production and IL-10 production was calculated by the following formula as the ratio relative to the test compound non-administration group.

Series [2] deals with IL-10 production. Put plainly: Effect on IL-10 production in mice (in vivo), LPS-induced. The settings on record: serum IL-10 90 min after LPS 500 μg/kg i.p.; test compound orally 30 min before LPS; ratio relative to test compound non-administration group. On the procedure: as §1

As for `CC(=O)NC(C)c1ccc(CN2CCN(c3ccc(F)cc3)CC2)cc1` (stereo not shown) [Example 48, N-(1-(4-((4-(4-Fluorophenyl)piperazin-1-yl)methyl)phenyl)ethyl)acetamide], the melting point – broadly, the temperature of the solid-liquid transition – lay in the range of 101 to 103 °C. For the same compound, in series [1], the “TNF-α production (%)” value stood at 12%. Further, the “IL-10 production (%)” value in series [2] came out at 888%. Consider `CC(=O)NC(C)c1ccc(CN2CCN(c3ccccc3)CC2)cc1` (stereo not shown) [Example 58, N-(1-(4-((4-Phenylpiperazin-1-yl)methyl)phenyl)ethyl)acetamide Dihydrochloride 1/4 Hydrate], for which, in series [1], the “TNF-α production (%)” value is reported as 19%. The “IL-10 production (%)” value in series [2] is given as 499%. `CC(=O)NCc1ccc(CN2CCN(c3ncccn3)CC2)cc1` [Example 72, N-(4-((4-(Pyrimidin-2-yl)piperazin-1-yl)methyl)phenylmethyl)acetamide] had a melting point of 120 to 121 °C. The “TNF-α production (%)” value in series [1] came out at 20%. The “IL-10 production (%)” value in series [2] was 510%. Consider `CC(=O)NCc1ccc(CN2CCN(c3nccs3)CC2)cc1` [Example 81, N-(4-((4-(Thiazol-2-yl)piperazin-1-yl)methyl)phenylmethyl)acetamide Hydrochloride 1/2 Hydrate], for which the “TNF-α production (%)” value in series [1] came out at 11%. Also, the “IL-10 production (%)” value in series [2] amounted to 1035%. `CCC(NC(C)=O)c1ccc(CN2CCN(c3ccccc3)CC2)cc1` (stereo not shown) [Example 53, N-(1-(4-((4-Phenylpiperazin-1-yl)methyl)phenyl)propyl)acetamide] had a melting point of 109 to 110.5 °C. On to `CC(=O)NC(C)(C)c1ccc(C(C)N2CCN(c3ccccc3)CC2)cc1` (stereo not shown) [Example 62, N-(1-(4-(1-(4-Phenylpiperazin-1-yl)ethyl)-phenyl)-1-methylethyl)acetamide], for which the melting point lay in the range of 169 to 171 °C.

Turning to `CC(=O)NC1(c2ccc(CN3CCN(c4ccc(F)cc4F)CC3)cc2)CC1` [Example 66, N-(1-(4-((4-(2,4-Difluorophenyl)-piperazin-1-yl)methyl)phenyl)cyclopropyl)acetamide], the melting point lay within 124 to 125 °C. Still for that read-out and setting: the figure for `CC(=O)NCc1ccc(CN2CCN(c3ncc(Cl)s3)CC2)cc1` [Example 112, N-(4-((4-(5-Chlorothiazol-2-yl)piperazin-1-yl)methyl)phenylmethyl)acetamide] is 142 to 145 °C (dec.); for `CC(=O)NCc1ccc(CN2CCN(c3ccc(F)cc3Cl)CC2)cc1` [Example 44, N-(4-((4-(2-Chloro-4-fluorophenyl)piperazin-1-yl)methyl)phenylmethyl)acetamide] it is 255 to 257 °C. On the same count and under the same terms, the figure for `CC(=O)NC1(c2ccc(CN3CCN(c4ncccn4)CC3)cc2)CC1` [Example 71, N-(1-(4-((4-(Pyrimidin-2-yl)piperazin-1-yl)methyl)phenyl)cyclopropyl)acetamide] is 145 to 146 °C; for `CC(=O)NCc1ccc(C(C)N2CCN(c3ccccc3)CC2)cc1` (stereo not shown) (as salt: hydrochloride) it is 233 to 235 °C (dec.); for `CC(=O)NC(C)c1ccc(CN2CCN(c3ccccn3)CC2)cc1` (stereo not shown) [Example 104, N-(1-(4-((4-(Pyridin-2-yl)piperazin-1-yl)methyl)phenyl)ethyl)acetamide] it is 120 to 121 °C. `CC(=O)N[C@@H](C)c1ccc(CN2CCN(c3ccc(F)cc3)CC2)cc1` [Example 121, (S)-N-(1-(4-((4-(4-Fluorophenyl)piperazin-1-yl)methyl)phenyl)ethyl)acetamide] yielded a melting point of 114 to 115 °C. As to `CC(=O)NCCc1ccc(CN2CCN(c3ccc(F)cc3)CC2)cc1` [Example 27, N-(2-(4-((4-(4-Fluorophenyl)piperazin-1-yl)methyl)phenyl)ethyl)acetamide], the melting point lay in the range of 121 to 123 °C.

`CC(=O)NCc1ccc(CN2CCN(c3ccccn3)CC2)cc1` [Example 82, N-(4-((4-(Pyridin-2-yl)piperazin-1-yl)methyl)phenylmethyl)acetamide] returned a melting point of 100 to 101 °C. Moreover, the “TNF-α production (%)” value in series [1] worked out at 11%. Further, in series [2], the “IL-10 production (%)” value is 742%.

In turn, `CC(=O)NCc1ccc(CN2CCN(c3cnccn3)CC2)cc1` [Example 87, N-(4-((4-(Pyrazin-2-yl)piperazin-1-yl)methyl)phenylmethyl)acetamide] registered a melting point of 118 to 119 °C. Regarding `CC(=O)NCCc1ccc(CN2CCN(c3ccccc3)CC2)cc1` [Example 14, N-(2-(4-((4-Phenylpiperazin-1-yl)methyl)phenyl)ethyl)acetamide], the melting point is 117 to 118 °C. Turning to `CC(=O)NC(C)(C)c1ccc(CN2CCN(c3ccccn3)CC2)cc1` [Example 105, N-(1-Methyl-1-(4-((4-(pyridin-2-yl)piperazin-1-yl)methyl)phenyl)ethyl)acetamide], the melting point was 129 to 130 °C. Regarding `COc1ccccc1N1CCN(C(C)c2ccc(CNC(C)=O)cc2)CC1` (stereo not shown) (as salt: hydrochloride) [Example 19, N-(4-(1-(4-(2-Methoxyphenyl)piperazin-1-yl)ethyl)phenylmethyl)acetamide Dihydrochloride], the melting point is 220 to 223 °C (dec.). Consider `CC(=O)NCc1ccc(CN2CCN(c3nccs3)CC2)cc1` (as salt: hydrochloride) (hydrate or solvate) [Example 81, N-(4-((4-(Thiazol-2-yl)piperazin-1-yl)methyl)phenylmethyl)acetamide Hydrochloride 1/2 Hydrate], for which the melting point was in the range of 120 to 121 °C.

In the case of `CC(=O)NC1(c2ccc(CN3CCN(c4ccccn4)CC3)cc2)CC1` [Example 118, N-(1-(4-((4-(Pyridin-2-yl)piperazin-1-yl)methyl)phenyl)cyclopropyl)acetamide], the melting point fell in the range of 145 to 147 °C. For `CC(=O)NC(C)(C)c1ccc(CN2CCN(c3ncccn3)CC2)cc1` [Example 95, N-(1-Methyl-1-(4-((4-(pyrimidin-2-yl)piperazin-1-yl)methyl)phenyl)ethyl)acetamide], the melting point was in the range of 137 to 138 °C. As to `CCC(NC(C)=O)c1ccc(CN2CCN(c3ccc(F)cc3F)CC2)cc1` (stereo not shown) [Example 55, N-(1-(4-((4-(2,4-Difluorophenyl)piperazin-1-yl)methyl)phenyl)propyl)acetamide], the melting point is 137 to 138 °C. Regarding `CC(=O)NC1(c2ccc(CN3CCN(c4cccc(F)n4)CC3)cc2)CC1` [Example 117, N-(1-(4-((4-(6-Fluoropyridin-2-yl)piperazin-1-yl)methyl)phenyl)cyclopropyl)acetamide], the melting point lay in the range of 135 to 136 °C. For the compound `CC(=O)NC(C)(C)c1ccc(CN2CCN(c3ccc(F)cc3)CC2)cc1` [Example 51, N-(1-Methyl-1-(4-((4-(4-fluorophenyl)-piperazin-1-yl)methyl)phenyl)ethyl)acetamide], the melting point was 104.5 to 106 °C. Further, the “TNF-α production (%)” value in series [1] was determined as 16%. For the same compound, the “IL-10 production (%)” value in series [2] was 533%. In turn, `CC(=O)NC1(c2ccc(C(C)N3CCN(c4ccc(F)cc4)CC3)cc2)CC1` (stereo not shown) [Example 67, N-(1-(4-(1-(4-(4-Fluorophenyl)piperazin-1-yl)ethyl)phenyl)cyclopropyl)acetamide] gave a melting point of 149 to 150 °C. `CCC(NC(C)=O)c1ccc(CN2CCN(c3ccc(F)cc3)CC2)cc1` (stereo not shown) [Example 54, N-(1-(4-((4-(4-Fluorophenyl)piperazin-1-yl)methyl)phenyl)propyl)acetamide] gave a melting point of 113 to 114 °C. Consider `CC(=O)NCc1ccc(CN2CCN(c3ccc([N+](=O)[O-])cc3)CC2)cc1` [Example 33, N-(4-((4-(4-Nitrophenyl)piperazin-1-yl)methyl)phenylmethyl)acetamide], for which the melting point lay in the range of 151.5 to 153.5 °C. The compound `CC(=O)NCc1ccc(CN2CCN(c3ccc(F)cc3)CC2)cc1[N+](=O)[O-]` [Example 23, N-(4-((4-(4-Fluorophenyl)piperazin-1-yl)methyl)-2-nitrophenylmethyl)acetamide] gave a melting point of 112 to 114 °C. Take `CC(=O)NCc1ccc(CN2CCN(c3cc(F)nc(F)n3)CC2)cc1` [Example 79, N-(4-((4-(2,6-Difluoropyrimidin-4-yl)piperazin-1-yl)methyl)phenylmethyl)acetamide]: the melting point lay in the range of 127 to 128 °C.
